Data reported in ChEMBL document CHEMBL1201862, “PubChem BioAssay data set” (2004).
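Assay format: 96-well plates, 48-hour exposure. GI50: concentration for 50% inhibition of growth.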 The source made the active and inactive calls. Cut-off read from the data, not from the text of the source: active = GI50 up to about 1.1 µM and inactive = higher.

Assays:
Assay in all cases: NCI-60 cell line screen, 48 h
MDA-MB-231 = test system: MDA-MB-231
HCT-116 = test system: HCT-116
DU-145 = test system: DU-145
CCRF-CEM = test system: CCRF-CEM
OVCAR-4 = test system: OVCAR-4
SK-MEL-5 = test system: SK-MEL-5
HOP-62 = test system: HOP-62
U-251 = test system: U-251
OVCAR-3 = test system: OVCAR-3
UACC-62 = test system: UACC-62
UACC-257 = test system: UACC-257
MDA-MB-435 = test system: MDA-MB-435
CAKI-1 = test system: CAKI-1
HCT-15 = test system: HCT-15
PC-3 = test system: PC-3
LOX IMVI = test system: LOX IMVI
NCI-H226 = test system: NCI-H226
UO-31 = test system: UO-31
M14 = test system: M14

Row | SMILES | GI50 (MDA-MB-231) | GI50 (HCT-116) | GI50 (DU-145) | GI50 (CCRF-CEM) | GI50 (OVCAR-4) | GI50 (SK-MEL-5) | GI50 (HOP-62) | GI50 (U-251) | GI50 (OVCAR-3) | GI50 (UACC-62) | GI50 (UACC-257) | GI50 (MDA-MB-435) | GI50 (CAKI-1) | GI50 (HCT-15) [µM] | GI50 (PC-3) | GI50 (LOX IMVI) | GI50 (NCI-H226) | GI50 (UO-31) | GI50 (M14)
1 | CCOP(=O)(O)CN1CCNCCN(CP(=O)(O)OCC)CCNCC1 | > 100 µM (inactive) | > 100 µM (inactive) | > 100 µM (inactive) | > 100 µM (inactive) | > 100 µM (inactive) | > 100 µM (inactive) | > 100 µM (inactive) | > 100 µM (inactive) | > 100 µM (inactive) | > 100 µM (inactive) | > 100 µM (inactive) | > 100 µM (inactive) | > 100 µM (inactive) | > 100 | > 100 µM (inactive) | > 100 µM (inactive) | > 100 µM (inactive) | 35.2 µM (inactive) | 
2 | Sc1nc2c(c(-c3nc(S)nc4c3CCCCCCCCCC4)n1)CCCCCCCCCC2 | > 100 µM (inactive) | > 100 µM (inactive) | > 100 µM (inactive) |  | > 100 µM (inactive) | > 100 µM (inactive) | > 100 µM (inactive) | > 100 µM (inactive) | > 100 µM (inactive) | > 100 µM (inactive) | > 100 µM (inactive) | > 100 µM (inactive) | > 100 µM (inactive) | > 100 | > 100 µM (inactive) | > 100 µM (inactive) | > 100 µM (inactive) | > 100 µM (inactive) | > 100 µM (inactive)
3 | COC(=O)[C@@]1(Cc2ccc(O)cc2)C[C@@H]2Cc3ccccc3N2N1 | 49.1 µM (inactive) | 65.3 µM (inactive) | > 100 µM (inactive) |  | > 100 µM (inactive) | 34.5 µM (inactive) | > 100 µM (inactive) | 57.1 µM (inactive) | > 100 µM (inactive) | 70.8 µM (inactive) | 23.3 µM (inactive) | > 100 µM (inactive) | > 100 µM (inactive) | 81.8 | 34.5 µM (inactive) | > 100 µM (inactive) | 90.8 µM (inactive) | 75.7 µM (inactive) | 38.8 µM (inactive)
4 | Cc1nc2ccccc2c(=O)n1/N=C/c1ccc(N(C)C)cc1 | 32.9 µM (inactive) | > 100 µM (inactive) | > 100 µM (inactive) | > 100 µM (inactive) | > 100 µM (inactive) | > 100 µM (inactive) | 34.2 µM (inactive) | 45 µM (inactive) | > 100 µM (inactive) | 71.8 µM (inactive) | > 100 µM (inactive) | > 100 µM (inactive) | > 100 µM (inactive) | > 100 | > 100 µM (inactive) | > 100 µM (inactive) | > 100 µM (inactive) |  | > 100 µM (inactive)
5 | Cn1c2ccc(C3=NCCN3)cc2c2cc(C3=NCCN3)ccc21 | 41.2 µM (inactive) | 21.9 µM (inactive) | 26.4 µM (inactive) | < 0.01 µM (active) | 13.6 µM (inactive) | 31.3 µM (inactive) | 15.3 µM (inactive) | 14.9 µM (inactive) | 42 µM (inactive) |  | 43.8 µM (inactive) | 61.8 µM (inactive) | > 100 µM (inactive) | > 100 | 34.3 µM (inactive) | 49.4 µM (inactive) | 30.1 µM (inactive) | 56.1 µM (inactive) | 48.6 µM (inactive)
6 | CSc1c(C(=O)Nc2ccccc2)c(N)nn1-c1ccccc1 | > 100 µM (inactive) | > 100 µM (inactive) | > 100 µM (inactive) | > 100 µM (inactive) | > 100 µM (inactive) | > 100 µM (inactive) |  | > 100 µM (inactive) | > 100 µM (inactive) | > 100 µM (inactive) | > 100 µM (inactive) | > 100 µM (inactive) | > 100 µM (inactive) | > 100 | > 100 µM (inactive) | > 100 µM (inactive) | > 100 µM (inactive) | 67.9 µM (inactive) | > 100 µM (inactive)
7 | O=[N+]([O-])c1ccc(-c2cn(-c3ccc(Cl)cc3)cn2)cc1 | 27.2 µM (inactive) | 27.4 µM (inactive) | > 100 µM (inactive) | > 100 µM (inactive) |  | 34.2 µM (inactive) | 18.2 µM (inactive) | 31.8 µM (inactive) | 19.1 µM (inactive) | 92 µM (inactive) | > 100 µM (inactive) | > 100 µM (inactive) | > 100 µM (inactive) | > 100 | > 100 µM (inactive) | 56.4 µM (inactive) | 48.5 µM (inactive) | 45 µM (inactive) | > 100 µM (inactive)
8 | COc1ccc2c(c1)CCCN1CCc3ccccc3C21 (stereo not given) | 23.9 µM (inactive) | 16.8 µM (inactive) | > 100 µM (inactive) | 26.1 µM (inactive) | > 100 µM (inactive) | 33.8 µM (inactive) | 37.9 µM (inactive) | 28.4 µM (inactive) | 30.2 µM (inactive) | 32.5 µM (inactive) | 47.8 µM (inactive) | 21.7 µM (inactive) | 74.5 µM (inactive) | 30.5 | 41.5 µM (inactive) | 32.5 µM (inactive) | 30.1 µM (inactive) |  | 20.4 µM (inactive)
9 | CC(C)(C)N/N=C(/Cc1nc2c3c(ccc2nc1O)C(=O)c1ccccc1C3=O)C(=O)NC1=C(Cl)C(=O)c2ccccc2C1=O | 1.98 µM (inactive) | 13.9 µM (inactive) | 21.8 µM (inactive) | 14.4 µM (inactive) | 5.16 µM (inactive) | 11.1 µM (inactive) |  | 47.8 µM (inactive) | 13.9 µM (inactive) | 21.2 µM (inactive) | 57.9 µM (inactive) | 33 µM (inactive) | 1.06 µM (active) | 4.26 | 7.71 µM (inactive) | 6.17 µM (inactive) | 10.7 µM (inactive) | 4.91 µM (inactive) | 15.5 µM (inactive)
10 | O=c1c2ccccc2nc(-c2cc3c(cc2Cl)Sc2nccn2S3(=O)=O)n1-c1ccccc1 | 18.4 µM (inactive) | 14.2 µM (inactive) | 20.8 µM (inactive) |  | 17.9 µM (inactive) | 45.3 µM (inactive) | 18.2 µM (inactive) | 16.8 µM (inactive) | 15.9 µM (inactive) | 26.4 µM (inactive) | 18 µM (inactive) | 22.8 µM (inactive) | > 100 µM (inactive) | 12.9 | 16.5 µM (inactive) | 88.7 µM (inactive) | > 100 µM (inactive) | 16.6 µM (inactive) | > 100 µM (inactive)
11 | COc1ccc2oc(=O)c3c(c2c1C)OC(C)(C)C=C3 | > 100 µM (inactive) | > 100 µM (inactive) | > 100 µM (inactive) | > 100 µM (inactive) |  | > 100 µM (inactive) | > 100 µM (inactive) | > 100 µM (inactive) | > 100 µM (inactive) | > 100 µM (inactive) | > 100 µM (inactive) | > 100 µM (inactive) | > 100 µM (inactive) | > 100 | > 100 µM (inactive) | > 100 µM (inactive) | > 100 µM (inactive) | > 100 µM (inactive) | > 100 µM (inactive)
12 | CCCCCCCCCCCCCCCCCC(=O)OCC(COC1OC(CS(=O)(=O)O)C(O)C(O)C1O)OC(=O)CCCCCCCCCCCCCCCCC (stereo not given) | > 100 µM (inactive) | > 100 µM (inactive) | > 100 µM (inactive) | > 100 µM (inactive) | > 100 µM (inactive) | > 100 µM (inactive) | > 100 µM (inactive) | > 100 µM (inactive) | > 100 µM (inactive) | > 100 µM (inactive) | > 100 µM (inactive) | > 100 µM (inactive) | > 100 µM (inactive) | > 100 | > 100 µM (inactive) | > 100 µM (inactive) | > 100 µM (inactive) |  | > 100 µM (inactive)
13 | O=[N+]([O-])c1cc(F)ccc1S(=O)(=O)c1ccccc1 | > 10 µM (inactive) | > 10 µM (inactive) | > 10 µM (inactive) | > 10 µM (inactive) | > 10 µM (inactive) | > 10 µM (inactive) | > 10 µM (inactive) | > 10 µM (inactive) | > 10 µM (inactive) | > 10 µM (inactive) | > 10 µM (inactive) | > 10 µM (inactive) | > 10 µM (inactive) | > 10 | > 10 µM (inactive) | > 10 µM (inactive) | > 10 µM (inactive) |  | > 10 µM (inactive)
14 | O=C(O)CSc1nnc(CCCCCCCCc2nnc(SCC(=O)O)o2)o1 | > 100 µM (inactive) | > 100 µM (inactive) | > 100 µM (inactive) | > 100 µM (inactive) | > 100 µM (inactive) | > 100 µM (inactive) | > 100 µM (inactive) | > 100 µM (inactive) |  | > 100 µM (inactive) | > 100 µM (inactive) | > 100 µM (inactive) | > 100 µM (inactive) | > 100 | > 100 µM (inactive) | > 100 µM (inactive) | > 100 µM (inactive) | > 100 µM (inactive) | > 100 µM (inactive)
15 | CN(C)CCCN1c2ccccc2CCc2cc([N+](=O)[O-])ccc21 | 14.9 µM (inactive) | 15.7 µM (inactive) | 18.2 µM (inactive) |  | 17.7 µM (inactive) | 12.9 µM (inactive) | 15.8 µM (inactive) | 17.4 µM (inactive) | 17.9 µM (inactive) | 14.3 µM (inactive) | 15 µM (inactive) | 15.8 µM (inactive) | 15.5 µM (inactive) | 18.5 | 16.7 µM (inactive) | 14.4 µM (inactive) | 17.5 µM (inactive) | 14.9 µM (inactive) | 16.3 µM (inactive)
